One series concerns human glioblastoma cells. The following applies: S. Favre et al., Heterocycles 2006; cited from earlier work.
The next series concerns A549. The series can be described thus: Viability assay (CellTiter 96 Aqueous1), cell growth inhibition. It is filed as cell-based. The following applies: Homo sapiens; A549 (lung carcinoma), viability 72 hours after addition. On the procedure:
(§1) Cell lines and reagents. The tumor cell lines used for the in vitro evaluation of cell growth inhibition by dihydroxypirolidine derivatives were U87 (glioblastoma), PC3 (prostate cancer), A549 (lung carcinoma), MDA-MB231, MCF7, BT474, and SKBR3 (breast cancer). Cells were grown in 10-cm culture dishes with McCoy medium containing 10% fetal calf serum (FCS) and antibiotics at 37°C and 5% CO2. The dihydroxypirolidine derivatives CB161, CB181, and CB183 were weighted and dissolved in DMSO to prepare a stock solution concentrated 100 mM.
(§2) Viability assays. For the viability assays, 5 x 10^4 cells/well were plated in 200 µl medium in 96 well plates. 48 hours later, the dihydroxypirolidine derivatives were added to the wells at concentrations ranging between 10^-2 and 400 µM, such that the vehicle DMSO never exceeded 0.4%. Each drug concentration was tested in duplicate. Viability was determined 72 hours later using CellTiter 96 Aqueous1 (Promega) according to the manufacturer's instructions. Incubation times with CellTiter96 Aqueous1 ranged between 2 and 4 hours. Plates were read with a spectrophotometer (Labsystems iEMS Reader MF) at 490 nm wave length. IC50s were estimated using GraphPad Prism4.

For another series, the system named is BT474. Described as above. The format is cell-based. The following applies: Homo sapiens, BT-474; BT474 (breast cancer), viability 72 hours after addition. On the procedure:
as §1, §2

Another series has as its system MCF7. Described as above. The format is cell-based. The following applies: Homo sapiens; MCF7 (breast cancer), viability 72 hours after addition. On the procedure: as §1, §2
The next series relates to MDA-MB-231. The description is as above. The format is cell-based. The following applies: Homo sapiens; MDA-MB-231 (breast cancer), viability 72 hours after addition. The protocol:
as §1, §2

In another series the test system is PC3. The series is described as above. It is filed as cell-based. The following applies: Homo sapiens, PC-3; PC3 (prostate cancer), viability 72 hours after addition. On the procedure: as §1, §2
Another series deals with SKBR3. Described as above. It is filed as cell-based. The note with it: Homo sapiens, SK-BR-3; SKBR3 (breast cancer), viability 72 hours after addition. On the procedure:
as §1, §2

The next series deals with U87. Described as above. The format is cell-based. The following applies: Homo sapiens, U-87 MG. The protocol: as §1, §2
Series [1] relates to seven established human tumor cell lines. The series can be described thus: Viability assay, panel of seven tumor cell lines. It is filed as cell-based. The note with it: all the cell lines tested. The protocol:
as §1, §2

In the next series the test system is glioblastoma cell growth. The following applies: H. Fiaux et al., J. Med. Chem. 2005; cited from earlier work.
Setting [2] is: refers to Figure 8 (U87 glioblastoma), read-out: IC50s (growth inhibition effects).

Where two headings read alike, the source gives them in different places.

`O=C(NC[C@H](NC[C@H]1NC[C@H](O)[C@@H]1O)c1ccccc1)c1cccc(Br)c1` [N-[(2R)-2-({[(2R,3R,4S)-3,4-dihydroxypyrrolidin-2-yl]methyl}amino)-2-phenylethyl]-3-bromobenz-amide]: in the series on human glioblastoma cells, the “inhibition of human glioblastoma cells” value is recorded as “convincing inhibition”.

Consider `OC[C@H](NC[C@H]1NC[C@H](O)[C@@H]1O)c1ccc(-c2ccc(C(F)(F)F)cc2)cc1` [CB183, (2R,3R,4S)-2-{{{(1R)-2-hydroxy-1-[4'-(trifluoromethyl)-[1,1'-biphenyl]-4-1]ethyl}amino}methyl}pyrrolidine-3,4-diol], for which the IC50 in the series with A549 amounted to 152 µM; in the series on BT474 it was 93.3 µM; in the series on MCF7, 76.7 µM; with MDA-MB-231, 65.8 µM; in the series with PC3 it was 132 µM; with SKBR3 it was 48.3 µM. Further, in the series on U87 (U87 (glioblastoma), viability 72 hours after addition, read-out: IC50), the IC50 was found to be 80 µM. Further, in series [1], the “potent cytotoxic activity for concentrations” value is below 200 µM.

As to `OC[C@H](NC[C@H]1NC[C@H](O)[C@@H]1O)c1ccc(-c2ccccc2)cc1` [CB161], the IC50 with U87 (setting [2]) was above 200 µM.

With `C=CCOc1ccc([C@H](CO)NC[C@H]2NC[C@H](O)[C@@H]2O)cc1` [CB181, (2R,3R,4S)-2{{{(1R)-2-hydroxy-1-[4-(prop-2-enyloxy)phenyl]ethyl}amino}methyl} pyrrolidine-3,4-diol], the IC50 in the series on U87 (setting [2]) was above 200 µM.

Consider `O[C@H]1[C@H]2[C@H](O)CCCN2C[C@H]1O` [swainsonine], for which the “inhibitory effect on glioblastoma cell growth” value with glioblastoma cell growth is reported as “only little inhibitory effect”.

Values taken from patent EP2067771A1, “Derivatives of Dihydroxypyrrolidine as Anti-Cancer Compounds” (EPFL Ecole Polytechnique Fédérale de Lausanne, priority 2007, dated 2009).
